Assay results: article PMC12079500, “An Intracellular Peptide Library Screening Platform Identifies Irreversible Covalent Transcription Factor Inhibitors” (Advanced Science, 2025)
Values joined by “and” are separate entries in the source; they are usually repeats but may differ in a detail not shown here. Identical values can stand only once. Like-named read-outs stand apart in the source and are kept apart here. Where a SMILES comes first, the peptide text is derived from it. Bridges are numbered along the chain shown (N, C = ends). The star is where a group is joined. 5FAM = O=C1OC2(c3ccc(O)cc3Oc3cc(O)ccc32)c2ccc(C(=O)*)cc21

Columns and labels:
SK-MEL-28 cells = test: Cell imaging of FAM-peptide uptake; format: cell-based, human; conditions: SK-MEL-28, 10 and 30 µM, 6 h, 37 °C, fixed, DAPI counterstain, fluorescence microscopy
Procedure: Cell imaging: Cells were seeded at 40,000 cells per well in a […] and incubated for 24 hours before treatment with vehicle (1% DMSO in water) or peptide for 6 hours. The media was removed and the cells were washed 3x with PBS. 1 mL of paraformaldehyde (80 mg/mL in PBS) was added and incubated at room temperature for 10 minutes. The paraformaldehyde was removed and fixed cells were washed with 3x PBS. 500 µL of DAPI (1 µg/mL) was then added and incubated at room temperature for 5 minutes following by a 3x PBS wash. Cells were imaged using an Evos FL digital inverted fluorescence microscope using brightfield and both GFP (for the FAM label) and DAPI fluorescence filters.

cJun/TRE DNA = biological target: T1, cJun/TRE DNA (Homo sapiens, UniProt P05412); test: CD cJun/TRE DNA antagonism assay (TRE DNA signal at 281 nm); format: biochemical; conditions: for cJun-TRE DNA IC50, fold improved (oxidised vs reduced): ratio of IC50 reduced / oxidised; for IC50: pH 7.4, 30 min equilibration, triplicate data, Hill fit, error one SD
T1 construct: LC-MS analysis of the cJun bZIP domain; made in house
T1 sequence (P05412 252-315 limits assumed): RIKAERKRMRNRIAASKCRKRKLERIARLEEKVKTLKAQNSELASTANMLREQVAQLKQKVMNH
Description: CD antagonism experiments were next carried out, as previously described,^[ [13], [18] ^] whereby the structure of a TRE DNA duplex was monitored by following a peak at 281 nm, which shifts upon binding to cJun. The introduction of antagonist to the sample causes the peak to shift back to its unbound signal in a dose‐dependent manner as the cJun is sequestered, leaving unbound DNA in its original structure (Figure S9, Supporting Information). As there is no protein absorbance in this region of the CD spectrum, this measures DNA structure only and produces a simple readout of the proportion of free/cJun‐bound DNA at different antagonist concentrations. By fitting these plots to a Hill equation (OriginPro), IC50 values for HW1, HW29, and HW31 were determined in both reducing and oxidizing conditions (Table S1, Supporting Information; Figure 3C).
(§1) Circular dichroism (CD): An Applied Photophysics Chirascan was used for CD measurements, with a 200 µL sample in a 1 mm path length CD cell. Protein/DNA samples were suspended in 20 mM potassium phosphate,150 mM potassium fluoride at pH 7.4 with or without 5 mM TCEP. cJun was added to TRE DNA (5’-[…], Merck) before addition of antagonist peptide and these samples were equilibrated for 30 minutes before measurement.^[13] For full spectra, three scans between 190 and 260 nm (265-320 nm for DNA binding experiments) were collected with a bandwidth of 1 nm and data sampled at a rate of 0.5 s^-1. These scans were averaged and converted to molar residue ellipticities (MRE). Thermal denaturation experiments were performed by measuring the ellipticity at 222 nm over a 1 to 95°C gradient at 1°C increments. Post-melt scans at 20°C confirmed the transitions were reversible as they overlaid within 5% of the pre-melt scan. The resulting thermal denaturation curves were converted to MRE and fitted to a two-state model, derived via modification of the Gibbs–Helmholtz equation to determine the melting temperature (Tm) ^[26].

cJun [1] = conditions: cited from earlier work
Description: We previously developed cJun peptide antagonists using a Transcription Block Survival (TBS) assay (Figure 1B).^[ [13] ^] This intracellular peptide library screening platform moves beyond conventional peptide screening systems by selecting peptides based on their ability to not only bind to the target but to meet the more demanding task of functionally antagonizing it by i) binding and, more importantly, ii) blocking its ability to form protein‐DNA interactions.

cJun [2] = biological target: T2, cJun (Homo sapiens, UniProt P05412); test: CD thermal denaturation of antagonist-cJun heterodimer; format: binding; set-up: LC-MS analysis of the cJun bZIP domain; made in house; conditions: for Antagonist-cJun heterodimer Tm, reduced / Antagonist-cJun heterodimer Tm, oxidised: CD at 222 nm, 1-95 °C, 20 mM potassium phosphate, 150 mM KF; for Antagonist-cJun heterodimer Tm, reduced: pH 7.4, with 5 mM TCEP (reducing); for Antagonist-cJun heterodimer Tm, oxidised: pH 7.4, without TCEP (oxidising), HW31 50 µM + cJun 50 µM; for Antagonist-cJun heterodimer Tm, Δox-red: difference of Tm in oxidising and reducing buffer
T2 sequence (P05412 252-315 limits assumed): as above
Procedure: as §1

cJun [3] = biological target: T2, cJun; test: ESI-MS of HW31 + cJun mixture; format: binding; set-up: LC-MS analysis of the cJun bZIP domain; made in house; conditions: HW31 50 µM + cJun 50 µM, oxidising conditions; reduced back by TCEP
Procedure: A mixture of HW31 (50 µM) and cJun (50 µM, Figure S4, Supporting Information) was first shown to form a disulphide‐bridged complex by ESI‐MS, which could be reduced back to the separate species by the addition of TCEP (Figure S5, Supporting Information). Further, an Alphafold 3 prediction of HW31 (prediction without lactam bridge) bound to cJun indicates the complex forms the predicted coiled coil interaction with the formation of a disulphide between cJun C269 and HW31 C2 (Figure 3A; Figure S6, Supporting Information).^[ [17] ^] The interaction was next characterized using circular dichroism (CD) experiments in both oxidizing and reducing conditions. The mixing of HW31 and cJun in both conditions provided a clear increase in helicity, indicative of a binding interaction (Figure S7, Supporting Information). The measured HW31‐cJun heterodimer complex was ≈10% more helical in the oxidized buffer relative to the reduced. […] Analytical size exclusion chromatography further validated HW31/cJun binding and confirmed the formation of a 1:1 stoichiometric complex (Figure S8, Supporting Information).

cJun [4] = biological target: T2, cJun; test: CD spectra (helicity) of HW31-cJun mixture; format: binding; set-up: LC-MS analysis of the cJun bZIP domain; made in house; conditions: oxidised vs reduced buffer
Procedure: as §1

[5] = oxidising buffer (no TCEP), read-out: cJun-TRE DNA IC50, oxidised
[6] = reducing buffer (5 mM TCEP), read-out: cJun-TRE DNA IC50, reduced

| Compound | Cellular uptake (FAM fluorescence within cells) (SK-MEL-28 cells) | cJun-TRE DNA IC50, fold improved (oxidised vs reduced) (cJun/TRE DNA) | Kd (cJun [1]; read-out: Previously determined affinity for cJun) | Antagonist-cJun heterodimer Tm, reduced (cJun [2]) | Antagonist-cJun heterodimer Tm, oxidised (cJun [2]) | Antagonist-cJun heterodimer Tm, Δox-red (cJun [2]) | IC50 (cJun/TRE DNA; [5]) | IC50 (cJun/TRE DNA; [6]) | Disulphide formation with cJun (cJun [3]) | Increase in helicity of the HW31-cJun heterodimer complex in oxidized buffer relative to reduced (cJun [4]) | Kd (cJun [1]; read-out: Affinity for cJun) |
| --- | --- | --- | --- | --- | --- | --- | --- | --- | --- | --- | --- |
| CC(C)[C@H](NC(=O)[C@H](CCCCN)NC(=O)[C@H](CCCNC(=N)N)NC(=O)[C@H](CCCCN)NC(=O)[C@H](CCCCN)NC(=O)[C@H](CCCCN)NC(=O)[C@@H]1CCCN1C(=O)c1ccc2c(c1)C(=O)OC21c2ccc(O)cc2Oc2cc(O)ccc21)C(=O)N[C@@H](Cc1ccc(O)cc1)C(=O)NCC(=O)N[C@@H](CCCNC(=N)N)C(=O)N[C@@H](CCCCN)C(=O)N[C@@H](CCCCN)C(=O)N[C@@H](CCCNC(=N)N)C(=O)N[C@@H](CCCNC(=N)N)C(=O)N[C@@H](CCC(N)=O)C(=O)N[C@@H](CCCNC(=N)N)C(=O)N[C@@H](CCCNC(=N)N)C(=O)N[C@@H](CCCNC(=N)N)C(N)=O [FAM-NLSTAT, reference compound] (5FAM-PKKKRKVYGRKKRRQRRR-NH2) | FAM fluorescence was observed within the cells | – | – | – | – | – | – | – | – | – | – |
| CC[C@H](C)[C@H](NC(=O)[C@H](CCC(=O)O)NC(=O)[C@H](CCCCN)NC(=O)[C@H](CCCNC(=N)N)NC(=O)[C@H](CC(C)C)NC(=O)[C@H](C)NC(=O)[C@H](Cc1ccc(O)cc1)NC(=O)[C@H](CC(N)=O)NC(=O)[C@H](CCCNC(=N)N)NC(=O)[C@H](CCC(=O)O)NC(=O)[C@H](CCC(=O)O)NC(=O)[C@H](CC(C)C)NC(=O)[C@H](CCC(N)=O)NC(=O)[C@H](CCC(=O)O)NC(=O)[C@@H](NC(=O)[C@H](CCC(=O)O)NC(=O)[C@H](CCC(=O)O)NC(=O)[C@H](CCC(=O)O)NC(=O)[C@H](CC(C)C)NC(=O)[C@@H](NC(=O)[C@H](CC(=O)O)NC(=O)[C@H](CCC(=O)O)NC(=O)[C@H](CCC(=O)O)NC(=O)[C@@H](NC(=O)[C@@H](NC(=O)[C@H](CC(C)C)NC(=O)[C@H](CCC(=O)O)NC(=O)[C@H](CCC(=O)O)NC(=O)[C@H](C)NC(=O)[C@H](CCC(=O)O)NC(C)=O)C(C)C)C(C)C)C(C)C)[C@@H](C)CC)C(=O)N[C@H]1CCCCNC(=O)C[C@@H](C(=O)N[C@@H](CCC(N)=O)C(N)=O)NC(=O)[C@H](CCC(N)=O)NC(=O)[C@H](CC(C)C)NC(=O)[C@H](CC(=O)O)NC1=O [HW29, reference compound] (Ac-EAEELVVEEDVLEEEIEQLEERNYALRKEIKDLQDQ-NH2; lactam 31-35) | – | 1 | 0.087 ± 0.017 µM | 68 °C | 66 °C | -2 °C | – | – | – | – | – |
| CC[C@H](C)[C@H](NC(=O)[C@H](CCC(=O)O)NC(=O)[C@H](CCCCN)NC(=O)[C@H](CCCNC(=N)N)NC(=O)[C@H](CC(C)C)NC(=O)[C@H](C)NC(=O)[C@H](Cc1ccc(O)cc1)NC(=O)[C@H](CC(N)=O)NC(=O)[C@H](CCCNC(=N)N)NC(=O)[C@H](CCC(=O)O)NC(=O)[C@H](CCC(=O)O)NC(=O)[C@H](CC(C)C)NC(=O)[C@H](CCC(N)=O)NC(=O)[C@H](CCC(=O)O)NC(=O)[C@@H](NC(=O)[C@H](CCC(=O)O)NC(=O)[C@H](CCC(=O)O)NC(=O)[C@H](CCC(=O)O)NC(=O)[C@H](CC(C)C)NC(=O)[C@@H](NC(=O)[C@H](CC(=O)O)NC(=O)[C@H](CCC(=O)O)NC(=O)[C@H](CCC(=O)O)NC(=O)[C@@H](NC(=O)[C@@H](NC(=O)[C@H](CC(C)C)NC(=O)[C@H](CCC(=O)O)NC(=O)[C@H](CCC(=O)O)NC(=O)[C@H](CS)NC(=O)[C@H](CCC(=O)O)NC(C)=O)C(C)C)C(C)C)C(C)C)[C@@H](C)CC)C(=O)N[C@H]1CCCCNC(=O)C[C@@H](C(=O)N[C@@H](CCC(N)=O)C(N)=O)NC(=O)[C@H](CCC(N)=O)NC(=O)[C@H](CC(C)C)NC(=O)[C@H](CC(=O)O)NC1=O [HW31] (Ac-ECEELVVEEDVLEEEIEQLEERNYALRKEIKDLQDQ-NH2; lactam 31-35) | – | 4 | – | 66.6 °C and 67 °C | 81.2 °C and 81 °C | 14.6 °C and 14 °C | 12.1 ± 0.3 µM | 48.3 ± 1.8 µM | covalent attachment via a disulphide | ≈ 10% | – |
| Ac-LEQRAEELARENEELEKEAEELVVEEDVLEEEIEQLEERNYALRKEIEDLQKQLEKL-NH2 [HW1, reference compound] | – | 1 | – | 73 °C | 70 °C | -3 °C | 11.8 ± 0.3 µM | 13.8 ± 0.3 µM | – | – | 0.00021 µM |
